# Source: PubChem BioAssay AID2060897 (Molecular Pharmacology Branch, DTP, NCI, 2025)
# Test system: 966289-007-R4-J1-PDC complex spheroid viability
# Assay: Anticancer human tumor 966289-007-R4-J1-PDC patient-derived pancreatic adenocarcinoma cell line growth inhibition [RAS]
# Conditions: for viability, T/C: stronger effect = lower value
# In short: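 Agents were tested in combination matrices in half-log decrements from a top concentration at or near clinical Cmax (10 microM if undetermined). Targets were multi-cell spheroids of tumour lines plus HUVEC and MSC stromal cells.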
# [1] = curve of first compound, second compound 0.00316 µM
# [2] = curve of first compound, second compound 0.01 µM
# [3] = curve of first compound, second compound 0.0316 µM
# [4] = curve of first compound, second compound 0.1 µM
# [5] = curve of first compound, second compound 0.316 µM
# [6] = curve of first compound, second compound 1 µM
# [7] = second compound 0.00316 µM, first compound 0.0316 µM
# [8] = second compound 0.00316 µM, first compound 0.1 µM
# [9] = second compound 0.00316 µM, first compound 0.316 µM
# [10] = second compound 0.00316 µM, first compound 1 µM
# [11] = second compound 0.00316 µM, first compound 3.16 µM
# [12] = second compound 0.00316 µM, first compound 10 µM
# [13] = second compound 0.01 µM, first compound 0.0316 µM
# [14] = second compound 0.01 µM, first compound 0.1 µM
# [15] = second compound 0.01 µM, first compound 0.316 µM
# [16] = second compound 0.01 µM, first compound 1 µM
# [17] = second compound 0.01 µM, first compound 3.16 µM
# [18] = second compound 0.01 µM, first compound 10 µM
# [19] = second compound 0.0316 µM, first compound 0.0316 µM
# [20] = second compound 0.0316 µM, first compound 0.1 µM
# [21] = second compound 0.0316 µM, first compound 0.316 µM
# [22] = second compound 0.0316 µM, first compound 1 µM
# [23] = second compound 0.0316 µM, first compound 3.16 µM
# [24] = second compound 0.0316 µM, first compound 10 µM
# [25] = second compound 0.1 µM, first compound 0.0316 µM
# [26] = second compound 0.1 µM, first compound 0.1 µM
# [27] = second compound 0.1 µM, first compound 0.316 µM
# [28] = second compound 0.1 µM, first compound 1 µM
# [29] = second compound 0.1 µM, first compound 3.16 µM
# [30] = second compound 0.1 µM, first compound 10 µM
# [31] = second compound 0.316 µM, first compound 0.0316 µM
# [32] = second compound 0.316 µM, first compound 0.1 µM
# [33] = second compound 0.316 µM, first compound 0.316 µM
# [34] = second compound 0.316 µM, first compound 1 µM
# [35] = second compound 0.316 µM, first compound 3.16 µM
# [36] = second compound 0.316 µM, first compound 10 µM
# [37] = second compound 1 µM, first compound 0.0316 µM
# [38] = second compound 1 µM, first compound 0.1 µM
# [39] = second compound 1 µM, first compound 0.316 µM
# [40] = second compound 1 µM, first compound 1 µM
# [41] = second compound 1 µM, first compound 3.16 µM
# [42] = second compound 1 µM, first compound 10 µM
# 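Further: spheroids exposed to agents for one week before readout.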
# 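Wherever viability, T/C is given: percent viability relative to DMSO vehicle control wells as 100%.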
compound,measurement,setting,value
CC(Nc1ccc2c(c1)OCCn1cc(N3C(=O)OCC3C(F)F)nc1-2)C(N)=O (centres undefined) + C=CC(=O)N1CCN(c2nc(OCC3CCCN3C)nc3c(F)c(-c4nc(N)cc(C)c4C(F)(F)F)c(Cl)cc23)C(C)C1,IC50,[1],> 10 µM
same,IC50,[2],> 10 µM
same,IC50,[3],> 10 µM
same,IC50,[4],> 10 µM
same,IC50,[5],> 10 µM
same,IC50,[6],> 10 µM
same,"viability, T/C",[7],96.2%
same,"viability, T/C",[8],103%
same,"viability, T/C",[9],96.3%
same,"viability, T/C",[10],96.4%
same,"viability, T/C",[11],101%
same,"viability, T/C",[12],86.1%
same,"viability, T/C",[13],89.8%
same,"viability, T/C",[14],112%
same,"viability, T/C",[15],115%
same,"viability, T/C",[16],102%
same,"viability, T/C",[17],97.4%
same,"viability, T/C",[18],86.9%
same,"viability, T/C",[19],99.8%
same,"viability, T/C",[20],110%
same,"viability, T/C",[21],114%
same,"viability, T/C",[22],111%
same,"viability, T/C",[23],93.2%
same,"viability, T/C",[24],84.1%
same,"viability, T/C",[25],95.8%
same,"viability, T/C",[26],111%
same,"viability, T/C",[27],115%
same,"viability, T/C",[28],115%
same,"viability, T/C",[29],88.3%
same,"viability, T/C",[30],93.3%
same,"viability, T/C",[31],96.6%
same,"viability, T/C",[32],101%
same,"viability, T/C",[33],117%
same,"viability, T/C",[34],117%
same,"viability, T/C",[35],103%
same,"viability, T/C",[36],98.7%
same,"viability, T/C",[37],99.8%
same,"viability, T/C",[38],110%
same,"viability, T/C",[39],112%
same,"viability, T/C",[40],87.1%
same,"viability, T/C",[41],96.5%
same,"viability, T/C",[42],83.2%
CC1(O)CCCC1n1c(=O)c(C(F)F)cc2cnc(NC3CCN(S(C)(=O)=O)CC3)nc21 (centres undefined),"viability, T/C",compound 0.1 µM,56.9% [middle of 4 runs]
same,"viability, T/C",compound 0.316 µM,27.7% [middle of 4 runs]
same,"viability, T/C",compound 1 µM,31.8% [middle of 4 runs]
same,"viability, T/C",compound 3.16 µM,28.4% [middle of 4 runs]
same,"viability, T/C",compound 10 µM,4.66% [middle of 4 runs]
same,IC50,curve of compound,145 nM [middle of 4 runs]
Cc1nc(N2CCC3(CC2)COC(C)C3N)c(CO)nc1Sc1ccnc(N)c1Cl (centres undefined) + C=CC(=O)N1CCN(c2nc(OCC3CCCN3C)nc3c(F)c(-c4nc(N)cc(C)c4C(F)(F)F)c(Cl)cc23)C(C)C1,IC50,[1],> 10 µM
same,IC50,[2],> 10 µM
same,IC50,[3],> 10 µM
same,IC50,[4],> 10 µM
same,IC50,[5],> 10 µM
same,IC50,[6],> 10 µM
same,"viability, T/C",[7],100%
same,"viability, T/C",[8],90.2%
same,"viability, T/C",[9],121%
same,"viability, T/C",[10],105%
same,"viability, T/C",[11],106%
same,"viability, T/C",[12],80%
same,"viability, T/C",[13],109%
same,"viability, T/C",[14],89.6%
same,"viability, T/C",[15],109%
same,"viability, T/C",[16],94.6%
same,"viability, T/C",[17],100%
same,"viability, T/C",[18],98.6%
same,"viability, T/C",[19],106%
same,"viability, T/C",[20],97.9%
same,"viability, T/C",[21],110%
same,"viability, T/C",[22],105%
same,"viability, T/C",[23],108%
same,"viability, T/C",[24],84.7%
same,"viability, T/C",[25],91.1%
same,"viability, T/C",[26],107%
same,"viability, T/C",[27],107%
same,"viability, T/C",[28],99.9%
same,"viability, T/C",[29],101%
same,"viability, T/C",[30],81.6%
same,"viability, T/C",[31],111%
same,"viability, T/C",[32],102%
same,"viability, T/C",[33],123%
same,"viability, T/C",[34],114%
same,"viability, T/C",[35],97.8%
same,"viability, T/C",[36],101%
same,"viability, T/C",[37],91.3%
same,"viability, T/C",[38],98.1%
same,"viability, T/C",[39],112%
same,"viability, T/C",[40],107%
same,"viability, T/C",[41],104%
same,"viability, T/C",[42],97.1%
CC(C)NCC(C(=O)N1CCN(c2ncnc3c2C(C)CC3O)CC1)c1ccc(Cl)cc1 (centres undefined) + C=CC(=O)N1CCN(c2nc(OCC3CCCN3C)nc3c(F)c(-c4nc(N)cc(C)c4C(F)(F)F)c(Cl)cc23)C(C)C1,IC50,[1],5.59 µM
same,IC50,[2],5.17 µM
same,IC50,[3],5.85 µM
same,IC50,[4],5.45 µM
same,IC50,[5],5.98 µM
same,IC50,[6],5.35 µM
same,"viability, T/C",[7],99.8%
same,"viability, T/C",[8],85.1%
same,"viability, T/C",[9],112%
same,"viability, T/C",[10],101%
same,"viability, T/C",[11],70.1%
same,"viability, T/C",[12],29.5%
same,"viability, T/C",[13],105%
same,"viability, T/C",[14],96.7%
same,"viability, T/C",[15],118%
same,"viability, T/C",[16],99.5%
same,"viability, T/C",[17],61.9%
same,"viability, T/C",[18],34.3%
same,"viability, T/C",[19],99.7%
same,"viability, T/C",[20],110%
same,"viability, T/C",[21],126%
same,"viability, T/C",[22],104%
same,"viability, T/C",[23],67.2%
same,"viability, T/C",[24],35.1%
same,"viability, T/C",[25],116%
same,"viability, T/C",[26],104%
same,"viability, T/C",[27],132%
same,"viability, T/C",[28],110%
same,"viability, T/C",[29],63.2%
same,"viability, T/C",[30],35.4%
same,"viability, T/C",[31],106%
same,"viability, T/C",[32],97.1%
same,"viability, T/C",[33],127%
same,"viability, T/C",[34],107%
same,"viability, T/C",[35],67.5%
same,"viability, T/C",[36],35.9%
same,"viability, T/C",[37],101%
same,"viability, T/C",[38],95.8%
same,"viability, T/C",[39],115%
same,"viability, T/C",[40],90.1%
same,"viability, T/C",[41],62.9%
same,"viability, T/C",[42],35.5%
C[C@@H](NC(=O)c1ncnc(N)c1Cl)c1ncc(C(=O)Nc2cc(C(F)(F)F)c(Cl)cn2)s1 + C=CC(=O)N1CCN(c2nc(OCC3CCCN3C)nc3c(F)c(-c4nc(N)cc(C)c4C(F)(F)F)c(Cl)cc23)C(C)C1,IC50,[1],> 10 µM
same,IC50,[2],> 10 µM
same,IC50,[3],> 10 µM
same,IC50,[4],> 10 µM
same,IC50,[5],> 10 µM
same,IC50,[6],> 10 µM
same,"viability, T/C",[7],123%
same,"viability, T/C",[8],117%
same,"viability, T/C",[9],115%
same,"viability, T/C",[10],119%
same,"viability, T/C",[11],128%
same,"viability, T/C",[12],76.2%
same,"viability, T/C",[13],112%
same,"viability, T/C",[14],116%
same,"viability, T/C",[15],122%
same,"viability, T/C",[16],109%
same,"viability, T/C",[17],119%
same,"viability, T/C",[18],100%
same,"viability, T/C",[19],120%
same,"viability, T/C",[20],113%
same,"viability, T/C",[21],118%
same,"viability, T/C",[22],128%
same,"viability, T/C",[23],127%
same,"viability, T/C",[24],86.2%
same,"viability, T/C",[25],116%
same,"viability, T/C",[26],119%
same,"viability, T/C",[27],123%
same,"viability, T/C",[28],123%
same,"viability, T/C",[29],116%
same,"viability, T/C",[30],111%
same,"viability, T/C",[31],115%
same,"viability, T/C",[32],107%
same,"viability, T/C",[33],130%
same,"viability, T/C",[34],125%
same,"viability, T/C",[35],116%
same,"viability, T/C",[36],118%
same,"viability, T/C",[37],101%
same,"viability, T/C",[38],103%
same,"viability, T/C",[39],120%
same,"viability, T/C",[40],128%
same,"viability, T/C",[41],134%
same,"viability, T/C",[42],94.1%
